{"source": "patent US9289398B2", "about": "“Methods for the production of functional protein from DNA having a nonsense mutation and the treatment of disorders associated therewith” (PTC Therapeutics, Inc., priority 2006, dated 2016)", "assay_type_in_all_cases": "in vivo, human", "key": {"[1]": {"test": "Body weight, CF Phase 2 study", "from_the_text": "3-[5-(2-Fluoro-phenyl)-[1,2,4]oxadiazol-3-yl]-benzoic acid was provided in a formulation described herein.\nStatistically significant results and positive trends for secondary endpoints were also observed. In particular, although the trials were not been powered to detect statistical significant changes in secondary endpoints, statistically significant improvements from study entry to the end of the higher-dose treatment cycle in the patients' mean FEV1, FVC and weight were observed."}, "[2]": {"test": "Pharmacokinetics, DMD Phase 2 interim analysis", "conditions": "for Cmin: DMD patients, 4, 4, 8 mg/kg", "method": "3-[5-(2-Fluoro-phenyl)-[1,2,4]oxadiazol-3-yl]-benzoic acid is provided in a formulation described herein. Treatment is administered over 28 days for each treatment cohort. An initial cohort of patients are treated daily for 28 days with 3-[5-(2-fluoro-phenyl)-[1,2,4]oxadiazol-3-yl]-benzoic acid at a given dose level (e.g., 4-, 4-, and 8-mg/kg) TID. If the initial patients tolerate the drug, then a second cohort of patients receives 3-[5-(2-fluoro-phenyl)-[1,2,4]oxadiazol-3-yl]-benzoic acid at a higher dose level (e.g., 10-, 10-, and 20-mg/kg) TID. Thus, each patient receives a total of 84 doses of 3-[5-(2-fluoro-phenyl)-[1,2,4]oxadiazol-3-yl]-benzoic acid. After the end of 28 days of treatment, each patient is followed for an additional 28 days without treatment.\nAt each dose level, it is recommended that 3-[5-(2-fluoro-phenyl)-[1,2,4]oxadiazol-3-yl]-benzoic acid be taken TID at 6-, 6-, and 12-hour (±˜30 minutes) intervals. Ideally each dose is taken within ˜30 minutes after a meal (e.g., ˜7:00 AM after breakfast, ˜1:00 PM after lunch, and ˜7:00 PM after dinner). While it is realized that variations in dosing schedule may occur in the outpatient setting, it is recommended that the prescribed regimen (including dosing intervals and the relationship of dosing to meals) be followed closely on the days of PK sample collection. Clinical endpoints are evaluated using the procedures set forth above.\nSix patients were administered 3-[5-(2-fluoro-phenyl)-[1,2,4]oxadiazol-3-yl]-benzoic acid TID in a regimen consisting of 4 mg/kg with breakfast, 4 mg/kg with lunch, and 8 mg/kg with supper, for a total daily dose of 16 mg/kg. All patients were ambulatory, but had characteristic signs and symptoms of DMD, including some degree of muscle dysfunction and elevated serum CK concentrations. […] These adverse events included diarrhea in 1 patient; abdominal pain in 1 patient; and flatulence in 2 patients. […] Treatment compliance was good, with patients taking >95% of the intended total drug treatment for 28 days at the lower dose level. […]"}, "[3]": {"test": "Plasma exposure, additional DMD Phase 2 study", "method": "3-[5-(2-fluoro-phenyl)-[1,2,4]oxadiazol-3-yl]-benzoic acid was administered orally for 28 days at dose levels of 4, 4, 8 mg/kg (low dose); 10, 10, 20 mg/kg (mid dose); and 20, 20, 40 mg/kg (high dose) after breakfast, lunch, and dinner, respectively. 26 boys (ages: 5-13 years; stop codons: 15 UGA, 6 UAG, 5 UAA; baseline serum CK: 8,645-49,500 IU; steroid use: 19/26) completed 3-[5-(2-fluoro-phenyl)-[1,2,4]oxadiazol-3-yl]-benzoic acid at the low (n=6) or mid (n=20) dose levels. […] Compliance was >98% for both dose levels. Day 1 and Day 28 PK indicate stable plasma exposures over time; however, exposures were lower than in 3-[5-(2-fluoro-phenyl)-[1,2,4]oxadiazol-3-yl]-benzoic acid-treated healthy adult volunteers and cystic fibrosis patients. […] Relative to baseline, post-treatment increases in in vivo dystrophin expression occurred in 4/6 (67%) (90% CI 27-94%) and 10/20 (50%) (90% C1-30-70%) boys at low and mid doses, respectively.\n3-[5-(2-fluoro-phenyl)[1,2,4]oxadiazol-3-yl]-benzoic acid safely induces full-length dystrophin expression in vitro and in vivo and decreases serum CK levels in boys with nonsense-mutation-mediated DMD. […] Evaluation at the high dose level in 12 additional boys is ongoing."}, "[4]": {"test": "Muscle strength (myometry) and timed function tests, DMD Phase 2", "conditions": "within the 28 days of treatment", "method": "Upper and lower extremity myometry are performed using a hand-held myometer following standardized procedures (Beenakker, 2001, Neuromuscul. Disord. 11(5):441-6; Hyde, 2001, Neuromuscul. Disord 11(2):165-70). It is recommended (depending on the subject's baseline functional status) that evaluated muscle groups include hip abductors, knee extensors, elbow flexors and extensors, and hand grip. Bilateral assessments can be done, and three measurements can be recorded from each muscle group on each side. These parameters are monitored prior to treatment, on the second to last day of treatment, and during a follow-up period after treatment. During the pre-treatment and treatment periods, the myometry procedures are performed prior to the muscle biopsy.\nTimed function tests include time taken to stand from a supine position, time taken to walk 10 meters, and time taken to climb 4 standard-sized stairs (Mendell, 1989, N. Engl. J. Med. 320(24):1592-7; Griggs, 1991, Arch. Neurol. 48(4):383-8). These parameters are monitored prior to treatment, on the second to last day of treatment, and during a follow-up period after treatment. During the pre-treatment and treatment periods, the timed function tests are performed prior to the muscle biopsy. […]"}}}
{"smiles": "O=C(O)c1cccc(-c2noc(-c3ccccc3F)n2)c1", "note": "[3-[5-(2-fluoro-phenyl)-[1,2,4]oxadiazol-3-yl]-benzoic acid]", "values": [{"measurement": "Weight, End of Higher Dose Treatment", "setting": "[1]; study entry 58.3 kg", "result": 59.0, "unit": "kg"}, {"measurement": "Weight, Change", "setting": "[1]; study entry to end of higher dose treatment", "result": 0.7, "unit": "kg"}, {"measurement": "Drug accumulation / induction of metabolism", "setting": "[2]; 27-day treatment interval between sampling periods", "result": "neither evidence of drug accumulation nor evidence of decreased drug levels due to the induction of metabolism"}, {"measurement": "Cmin", "setting": "[2]; Day 1, N = 6, mean", "result": 500, "unit": "ng/mL"}, {"measurement": "Cmin", "setting": "[2]; Day 27, N = 6, mean", "result": 600, "unit": "ng/mL"}, {"measurement": "Plasma exposures over time", "setting": "[3]; Day 1 and Day 28 PK", "result": "stable"}, {"measurement": "Plasma exposures relative to treated healthy adult volunteers and cystic fibrosis patients", "setting": "[3]; boys with DMD", "result": "lower"}, {"measurement": "Plasma exposures relative to those associated with maximal preclinical activity", "setting": "[3]; low and mid dose levels", "result": "did not achieve plasma exposures associated with maximal preclinical activity"}, {"measurement": "Changes in muscle strength and timed functions", "setting": "[4]", "result": "small and not significant"}]}
